Test results published in patent publication US4110327A, “2,3 Diketo-piperazinocarbonylamino alkanoic acids and derivatives” (Toyama Chemical Co., Ltd., priority 1974, dated 1978).
In brackets after ≈: the same amount, converted by molar mass. One block for each compound: values may come before it.

Experiments:
Format in all cases: cell-based
Klebsiella pneumoniae [1] = experiment: MIC against clinical isolates; conditions: unit assumed
Pseudomonas aeruginosa = experiment: MIC against clinical isolates; conditions: unit assumed
Escherichia coli = experiment: MIC against clinical isolates; conditions: unit assumed
[2] = system: Staphylococcus aureus 209p; experiment: MIC against standard strain, plate method; conditions: unit assumed
Method: (§1) The minimum inhibitory concentrations (MIC) was determined by the plate method disclosed in "Chemotherapy" (Japan), Vol. 16, (1968), pages 98 - 99. The culture medium used was a Heart infusion agar (pH 7.4). The number of the cells per plate used in the inoculum as 10^4 (10^6 cells/ml).

Proteus vulgaris 3027 = experiment: MIC against standard strain, plate method; conditions: Proteus vulgaris 3027, standard strain; unit assumed
Method: as §1

Escherichia coli NIHJ = experiment: MIC against standard strain, plate method; conditions: unit assumed
Method: as §1

Klebsiella pneumoniae [3] = experiment: MIC against standard strain, plate method; conditions: unit assumed
Method: as §1

[4] = system: Pseudomonas aeruginosa I.F.O.; experiment: MIC against standard strain, plate method; conditions: unit assumed
Method: as §1

Staphylococcus aureus = experiment: MIC against clinical isolates; conditions: unit assumed
Salmonella typhi = experiment: MIC against clinical isolates; conditions: unit assumed
Salmonella typhi-murium = experiment: MIC against clinical isolates; conditions: unit assumed
Shigella sonnei = experiment: MIC against clinical isolates; conditions: clinical isolate JS 11232; unit assumed
Method: as §1
(§2) MIC was determined in the same manner as in the preceding paragraph (1).

Shigella flexneri = experiment: MIC against clinical isolates; conditions: clinical isolate JS 11215; unit assumed
Method: as §1, §2

SMILES: Cc1nnc(SCC2=C(C(=O)O)N3C(=O)[C@@H](NC(=O)Cn4cnnn4)[C@H]3SC2)s1 [Sodium Cephazolin, SodiumCephazolin, reference compound]
MIC (Klebsiella pneumoniae [1]; clinical isolate GN 917): 1.56 µg/mL | MIC (Klebsiella pneumoniae [1]; clinical isolate GN 4081): 3.13 µg/mL | MIC (Klebsiella pneumoniae [1]; clinical isolate GN 4117): 3.13 µg/mL | MIC (Pseudomonas aeruginosa; clinical isolate GN 82): > 200 µg/mL | MIC (Pseudomonas aeruginosa; clinical isolate GN 163): > 200 µg/mL | MIC (Pseudomonas aeruginosa; clinical isolate GN 221): > 200 µg/mL | MIC (Pseudomonas aeruginosa; clinical isolate GN 244): > 200 µg/mL | MIC (Pseudomonas aeruginosa; clinical isolate GN 376): > 200 µg/mL | MIC (Pseudomonas aeruginosa; clinical isolate GN 383): > 200 µg/mL | MIC (Pseudomonas aeruginosa; clinical isolate GN 1035): > 200 µg/mL | MIC (Pseudomonas aeruginosa; clinical isolate GN 1091): > 200 µg/mL | MIC (Pseudomonas aeruginosa; clinical isolate GN 2565): > 200 µg/mL | MIC (Pseudomonas aeruginosa; clinical isolate GN 2987): > 200 µg/mL | MIC (Pseudomonas aeruginosa; clinical isolate S-1): > 200 µg/mL | MIC (Pseudomonas aeruginosa; clinical isolate S-2): > 200 µg/mL | MIC (Pseudomonas aeruginosa; clinical isolate S-3): > 200 µg/mL | MIC (Pseudomonas aeruginosa; clinical isolate S-4): > 200 µg/mL | MIC (Escherichia coli; clinical isolate GN 3435): 1.56 µg/mL | MIC (Escherichia coli; clinical isolate GN 3452): 1.56 µg/mL | MIC (Escherichia coli; clinical isolate GN 3481): 1.56 µg/mL | MIC (Escherichia coli; clinical isolate GN 3611): 25 µg/mL | MIC (Escherichia coli; clinical isolate K-1): 1.56 µg/mL | MIC (Escherichia coli; clinical isolate K-2): 1.56 µg/mL | MIC (Escherichia coli; clinical isolate K-3): > 200 µg/mL | MIC (Escherichia coli; clinical isolate K-4): 3.13 µg/mL | MIC [2]: < 1.57 µg/mL | MIC (Proteus vulgaris 3027): 1.57 µg/mL | MIC (Escherichia coli NIHJ): < 1.57 µg/mL | MIC (Klebsiella pneumoniae [3]): 200 µg/mL | MIC [4]: > 200 µg/mL | MIC (Staphylococcus aureus; clinical isolate F-1): 0.78 µg/mL | MIC (Staphylococcus aureus; clinical isolate F-2): < 0.4 µg/mL | MIC (Staphylococcus aureus; clinical isolate F-3): < 0.4 µg/mL | MIC (Staphylococcus aureus; clinical isolate F-4): < 0.4 µg/mL | MIC (Staphylococcus aureus; clinical isolate F-5): 0.78 µg/mL | MIC (Staphylococcus aureus; clinical isolate MS 8588): < 0.4 µg/mL | MIC (Staphylococcus aureus; clinical isolate MS 8596): < 0.4 µg/mL | MIC (Staphylococcus aureus; clinical isolate MS 8619): < 0.4 µg/mL | MIC (Staphylococcus aureus; clinical isolate MS 8684): < 0.4 µg/mL | MIC (Staphylococcus aureus; clinical isolate MS 8713): < 0.4 µg/mL

SMILES: CC(=O)OCC1=C(C(=O)O)N2C(=O)[C@@H](NC(=O)Cc3cccs3)[C@H]2SC1 [Sodium Cephalothin, SodiumCephalothin, reference compound]
MIC (Klebsiella pneumoniae [1]; clinical isolate GN 917): 3.13 µg/mL | MIC (Klebsiella pneumoniae [1]; clinical isolate GN 4081): 12.5 µg/mL | MIC (Klebsiella pneumoniae [1]; clinical isolate GN 4117): 6.25 µg/mL | MIC (Pseudomonas aeruginosa; clinical isolate GN 82): > 200 µg/mL | MIC (Pseudomonas aeruginosa; clinical isolate GN 163): > 200 µg/mL | MIC (Pseudomonas aeruginosa; clinical isolate GN 221): > 200 µg/mL | MIC (Pseudomonas aeruginosa; clinical isolate GN 244): > 200 µg/mL | MIC (Pseudomonas aeruginosa; clinical isolate GN 376): > 200 µg/mL | MIC (Pseudomonas aeruginosa; clinical isolate GN 383): > 200 µg/mL | MIC (Pseudomonas aeruginosa; clinical isolate GN 1035): > 200 µg/mL | MIC (Pseudomonas aeruginosa; clinical isolate GN 1091): > 200 µg/mL | MIC (Pseudomonas aeruginosa; clinical isolate GN 2565): > 200 µg/mL | MIC (Pseudomonas aeruginosa; clinical isolate GN 2987): > 200 µg/mL | MIC (Pseudomonas aeruginosa; clinical isolate S-1): > 200 µg/mL | MIC (Pseudomonas aeruginosa; clinical isolate S-2): > 200 µg/mL | MIC (Pseudomonas aeruginosa; clinical isolate S-3): > 200 µg/mL | MIC (Pseudomonas aeruginosa; clinical isolate S-4): > 200 µg/mL | MIC (Escherichia coli; clinical isolate GN 3435): 6.25 µg/mL | MIC (Escherichia coli; clinical isolate GN 3452): 12.5 µg/mL | MIC (Escherichia coli; clinical isolate GN 3465): 25 µg/mL | MIC (Escherichia coli; clinical isolate GN 3481): 12.5 µg/mL | MIC (Escherichia coli; clinical isolate GN 3611): 50 µg/mL | MIC (Escherichia coli; clinical isolate K-1): 6.25 µg/mL | MIC (Escherichia coli; clinical isolate K-2): 6.25 µg/mL | MIC (Escherichia coli; clinical isolate K-3): 100 µg/mL | MIC (Escherichia coli; clinical isolate K-4): 25 µg/mL | MIC [2]: < 1.57 µg/mL | MIC (Proteus vulgaris 3027): < 1.57 µg/mL | MIC (Escherichia coli NIHJ): < 1.57 µg/mL | MIC (Klebsiella pneumoniae [3]): 100 µg/mL | MIC [4]: > 200 µg/mL | MIC (Staphylococcus aureus; clinical isolate F-1): < 0.4 µg/mL | MIC (Staphylococcus aureus; clinical isolate F-2): < 0.4 µg/mL | MIC (Staphylococcus aureus; clinical isolate F-3): < 0.4 µg/mL | MIC (Staphylococcus aureus; clinical isolate F-4): < 0.4 µg/mL | MIC (Staphylococcus aureus; clinical isolate F-5): 1.56 µg/mL | MIC (Staphylococcus aureus; clinical isolate MS 8588): < 0.4 µg/mL | MIC (Staphylococcus aureus; clinical isolate MS 8596): < 0.4 µg/mL | MIC (Staphylococcus aureus; clinical isolate MS 8619): < 0.4 µg/mL | MIC (Staphylococcus aureus; clinical isolate MS 8684): < 0.4 µg/mL | MIC (Staphylococcus aureus; clinical isolate MS 8713): < 0.4 µg/mL

MIC (Klebsiella pneumoniae [1]; clinical isolate GN 917): 0.78 µg/mL (≈ 1.24 µM) | MIC (Pseudomonas aeruginosa; clinical isolate GN 82): 12.5 µg/mL (≈ 19.9 µM) | MIC (Pseudomonas aeruginosa; clinical isolate GN 163): 12.5 µg/mL (≈ 19.9 µM) | MIC (Pseudomonas aeruginosa; clinical isolate GN 221): 6.25 µg/mL (≈ 9.93 µM) | MIC (Pseudomonas aeruginosa; clinical isolate GN 244): 25 µg/mL (≈ 39.7 µM) | MIC (Pseudomonas aeruginosa; clinical isolate GN 376): 12.5 µg/mL (≈ 19.9 µM) | MIC (Pseudomonas aeruginosa; clinical isolate GN 383): 25 µg/mL (≈ 39.7 µM) | MIC (Pseudomonas aeruginosa; clinical isolate GN 1035): 50 µg/mL (≈ 79.4 µM) | MIC (Pseudomonas aeruginosa; clinical isolate GN 1091): 12.5 µg/mL (≈ 19.9 µM) | MIC (Pseudomonas aeruginosa; clinical isolate GN 2565): 50 µg/mL (≈ 79.4 µM) | MIC (Pseudomonas aeruginosa; clinical isolate GN 2987): 12.5 µg/mL (≈ 19.9 µM) | MIC (Pseudomonas aeruginosa; clinical isolate S-1): 25 µg/mL (≈ 39.7 µM) | MIC (Pseudomonas aeruginosa; clinical isolate S-2): 25 µg/mL (≈ 39.7 µM) | MIC (Pseudomonas aeruginosa; clinical isolate S-3): 50 µg/mL (≈ 79.4 µM) | MIC (Pseudomonas aeruginosa; clinical isolate S-4): 50 µg/mL (≈ 79.4 µM) | MIC [2]: < 0.79 µg/mL | MIC (Proteus vulgaris 3027): < 0.79 µg/mL | MIC (Escherichia coli NIHJ): < 0.79 µg/mL | MIC (Klebsiella pneumoniae [3]): < 0.4 µg/mL | MIC [4]: 12.5 µg/mL (≈ 19.9 µM) | MIC (Staphylococcus aureus; clinical isolate F-1): 3.13 µg/mL (≈ 4.97 µM) | MIC (Staphylococcus aureus; clinical isolate F-2): 1.56 µg/mL (≈ 2.48 µM) | MIC (Staphylococcus aureus; clinical isolate F-3): 0.78 µg/mL (≈ 1.24 µM) | MIC (Staphylococcus aureus; clinical isolate F-4): 3.13 µg/mL (≈ 4.97 µM) | MIC (Staphylococcus aureus; clinical isolate F-5): 0.78 µg/mL (≈ 1.24 µM) | MIC (Staphylococcus aureus; clinical isolate MS 8588): 1.56 µg/mL (≈ 2.48 µM) | MIC (Staphylococcus aureus; clinical isolate MS 8596): 1.56 µg/mL (≈ 2.48 µM) | MIC (Staphylococcus aureus; clinical isolate MS 8619): 0.78 µg/mL (≈ 1.24 µM) | MIC (Staphylococcus aureus; clinical isolate MS 8684): 1.56 µg/mL (≈ 2.48 µM) | MIC (Staphylococcus aureus; clinical isolate MS 8713): 1.56 µg/mL (≈ 2.48 µM)
SMILES: CCN1CCN(C(=O)NC(C(=O)NC2C(=O)N3C(C(=O)O)=C(CSc4nnnn4C)CSC23)c2ccccc2)C(=O)C1=O (stereo not drawn) [compound 69]

SMILES: CC1(C)S[C@@H]2[C@H](NC(=O)C(C(=O)O)c3ccccc3)C(=O)N2[C@H]1C(=O)O (stereo partly drawn) [Sodium Carbenicillum, reference compound]
MIC (Salmonella typhi; clinical isolate SL 819): 6.25 µg/mL | MIC (Salmonella typhi; clinical isolate SL 2169): 3.13 µg/mL | MIC (Salmonella typhi-murium; clinical isolate SL 858): 12.5 µg/mL | MIC (Salmonella typhi-murium; clinical isolate SL 2136): > 200 µg/mL | MIC (Shigella sonnei): > 200 µg/mL | MIC (Shigella flexneri): > 200 µg/mL
